In this assay the target is mushroom tyrosinase (Agaricus bisporus, UniProt C7FF04). In words: Kinetic analysis of tyrosinase inhibition. The note with it: L-DOPA 0.5 to 3 mM.

Entries after “also recorded” stand apart in the source; their conditions may differ.

Chain of mushroom tyrosinase (C7FF04 1-392): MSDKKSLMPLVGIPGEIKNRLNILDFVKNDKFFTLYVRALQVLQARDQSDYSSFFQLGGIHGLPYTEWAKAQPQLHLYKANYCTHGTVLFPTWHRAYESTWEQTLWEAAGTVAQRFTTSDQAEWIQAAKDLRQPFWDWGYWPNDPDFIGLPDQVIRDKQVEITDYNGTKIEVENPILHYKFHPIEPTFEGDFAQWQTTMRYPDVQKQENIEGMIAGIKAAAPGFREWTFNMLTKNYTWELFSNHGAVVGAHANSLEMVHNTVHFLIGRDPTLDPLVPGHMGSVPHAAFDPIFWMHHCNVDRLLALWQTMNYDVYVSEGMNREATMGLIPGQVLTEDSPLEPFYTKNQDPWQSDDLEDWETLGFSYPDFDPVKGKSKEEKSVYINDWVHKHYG

Regarding `Nc1ccc(-c2cc(-c3ccc(-c4cc(-c5ccc(N)cc5)nc(N)n4)cc3)nc(N)n2)cc1` [Compound 6P, 6,6′-(1,4-phenylene)bis[4-(4-aminophenyl)pyrimidin-2-amine]], the “Type of tyrosinase inhibition (Lineweaver-Burk plots)” value was “mixed-type inhibitor; also recorded: mixed-type inhibition”.

These data come from article PMC11258615 (RSC Advances, 2024).
